Results published in patent US9200269B2, “β-glucuronidase inhibitor” (priority 2007, dated 2015).

Assays:
[1] = Urine catching pad urine addition test, urine odor intensity; set-up: species or system human; conditions: 30° C.
Experimental: Sensory evaluation of odor was performed by six panelists, the evaluation was based on a six-level odor intensity indication method in which the odor intensity was indicated with an evaluation score of 0 to 5. In the evaluation score, “0” indicates no odor, “1” indicates odor which can be slightly perceived (detection threshold), “2” indicates odor which can be perceived to be urine odor but is weak (perception threshold), “3” indicates odor which can be easily perceived to be urine odor, “4” indicates strong urine odor, and “5” indicates extreme urine odor. The odor intensity was determined at an interval of 0.5.
Specifically, the urine catching pad was prepared by replacing only a water-absorbent polymer in the commercially available urine catching pad “Relief urine catching pad safe absorption (Anshin-Kyusyu)” (manufactured by Kao Corporation) with a water-absorbent polymer wherein the β-glucuronidase inhibitor of the present invention was added. The added amount of the inhibitor to the water-absorbent polymer was 1 wt. % with respect to the water-absorbent polymer, and was equivalent to 1.5 g/m^2 with respect to the urine catching pad.
A urine addition test was performed by using test pieces having dimensions of 19 cm by 7 cm being cut out from the urine catching pad, and using a test piece containing no β-glucuronidase inhibitor as a blank. The test was performed as follows: 30 g of human urine (a mixture of urine from five humans) were added to these test pieces cut out from the urine catching pad, and the urine odor intensity after 1 hour, after 24 hours, and after 48 hours under preservation at 30° C. was evaluated by five panelists based on the six-level odor intensity indication method as described in the item (2) of Reference Example 2.

β-glucuronidase = target: T1, β-glucuronidase (Escherichia coli, UniProt P05804); experiment: Suppression of production of volatile compound from urine with added β-glucuronidase (GC-MS); type: biochemical; conditions: 0.01 wt %; human urine plus enzyme, 25° C., 22 hours
T1 construct: purchased Sigma-Aldrich Corporation
Experimental: 9.9 mL of a human urine sample (a mixture of urine from five humans), from which microorganisms were filtered with a 0.2-μm filter (Millex GV manufactured by Millipore Corporation) were added to a bottle which had been preliminarily subjected to γ-ray sterilization immediately after the collection, and subsequently 0.1 mL of an Escherichia coli-derived β-glucuronidase Type VII-A (purchased from Sigma-Aldrich Corporation) aqueous solution adjusted to 250 units/mL was added and mixed. The mixture was incubated in a thermostat bath at 25° C. and allowed to react for 22 hours. An initial urine sample prepared by adding 0.1 mL of sterilized ion exchanged water as substitution of the enzyme solution, was similarly incubated in a thermostat bath for 22 hours.
9.9 mL of a human urine sample (a mixture of urine from five humans) which had been subjected to a microbe-removing operation with a 0.2-μm filter immediately after the collection and 10 μL of a 10 wt % 8-cyclohexadecen-1-one DPG solution were added to a bottle γ-ray sterilized in advance, and subsequently 0.1 mL of a […] aqueous solution adjusted to 250 units/mL was added and mixed. The mixture was incubated in a thermostat bath at 25° C. and allowed to react for 22 hours. The concentration of 8-cyclohexadecen-1-one in the reaction solution was 0.01 wt %. Further, a product prepared by adding 0.1 mL of an enzyme solution to 9.9 mL of the microbe-removed urine sample was used as a control, a product prepared by adding 0.1 mL of ion exchanged water to 9.9 mL of the microbe-removed urine sample was used as a blank, and the respective products were allowed to react for 22 hours in the same manner.
After the completion of the reaction, to 9 mL of the reaction solution, a benzyl benzoate ethanol solution was added as an internal standard. The mixture was extracted twice with 10 mL of diethyl ether. The extracted solutions were combined and dried over anhydrous magnesium sulfate. After drying, a solid was separated by filtration, and the filtrate was concentrated with a rotary evaporator to prepare a sample for measurement.
Measurement was performed with a gas chromatograph mass spectrometer. The production amount of the volatile compound detected was calculated as a peak area ratio with respect to an internal standard. The production suppression rate for each of volatile components was determined by using the obtained value in accordance with the following equation. Production amount of control=Peak area ratio of control—Peak area ratio of blank Production amount of sample=Peak area ratio of sample−Peak area ratio of blank Production suppression rate (%)=[(Production amount of control −Production amount of sample)/Production amount of control]×100

[2] = test system: β-glucuronidase activity derived from microbial cells grown in the putrefied urine; experiment: Inhibition of β-glucuronidase activity derived from urine putrefying microbial cell (putrefied urine supernatant, PNPG); type: biochemical; conditions: 0.01 wt % in reaction solution; room temperature, 24 hours
Experimental: A putrefied urine product, which was prepared by collecting 20 mL of a urine sample, dispensing the sample in a bottle which had been preliminarily subjected to γ-ray sterilization without performing any microbe removing operation and storing the resultant at room temperature for 7 days, was used. 1 mL of the putrefied urine was centrifuged at 10,000 rpm for 5 minutes, and separated into a microbial cell and a supernatant. The precipitated microbial cell was suspended in 0.5 mL of saline. The supernatant was subjected to sterilizing through a 0.2-μm filter.
250 μL of a 2 mM PNPG aqueous solution, 100 μL of a 0.5 M phosphate buffer (pH 6.8), […] of a 10 wt % 8-cyclohexadecen-1-one DPG solution and 100 μL of ion exchanged water were mixed in a bottle γ-ray sterilized in advance, and subsequently 50 μL of the putrefied urine supernatant sample in Reference Example 3 were added. The mixture was allowed to react at room temperature. […]
The above-mentioned reaction solution immediately after the start of the reaction and after 24 hours of reaction was diluted with a 0.2 M glycine buffer (pH 10.4) and measured for its absorbance at a wavelength of 400 nm. A value obtained by subtracting the absorbance immediately after the start from the absorbance after 24 hours of reaction was used as an index of a β-glucuronidase activity.

[3] = six-level score 0 to 5, average of five panelists, inhibitor 1 wt. % of water-absorbent polymer, 30 g human urine

T1 sequence (P05804 whole entry): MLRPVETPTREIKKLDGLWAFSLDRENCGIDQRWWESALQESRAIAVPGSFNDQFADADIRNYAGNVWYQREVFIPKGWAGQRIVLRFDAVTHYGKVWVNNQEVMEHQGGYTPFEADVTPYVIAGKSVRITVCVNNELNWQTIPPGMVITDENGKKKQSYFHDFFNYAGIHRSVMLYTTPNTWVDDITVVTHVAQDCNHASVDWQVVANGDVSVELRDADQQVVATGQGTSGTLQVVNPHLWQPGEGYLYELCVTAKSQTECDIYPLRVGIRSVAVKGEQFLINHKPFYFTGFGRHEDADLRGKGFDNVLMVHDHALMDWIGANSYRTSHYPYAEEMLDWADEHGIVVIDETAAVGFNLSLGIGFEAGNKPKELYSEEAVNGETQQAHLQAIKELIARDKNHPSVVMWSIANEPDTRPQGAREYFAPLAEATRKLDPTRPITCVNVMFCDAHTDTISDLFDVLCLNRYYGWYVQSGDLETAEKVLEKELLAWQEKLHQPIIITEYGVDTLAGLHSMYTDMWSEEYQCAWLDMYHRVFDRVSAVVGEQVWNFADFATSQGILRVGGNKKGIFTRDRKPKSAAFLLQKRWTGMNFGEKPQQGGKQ

O=C1CCCCCCC=CCCCCCCC1 [8-Cyclohexadecen-1-one, 8-cyclohexadecen-1-one]
Suppression of the increase of urine odor in urine catching pad compared to the blank (result in words) ([1]; after 24 or 48 hours as stated): even after 48 hours, was confirmed
Urine odor intensity After 1 hour [1, 3]: 1.3
Urine odor intensity After 24 hours [1, 3]: 1.5
Urine odor intensity After 48 hours [1, 3]: 1.9
Production of phenol-based compounds and indole from urine (result in words) (β-glucuronidase): suppressed the production of all of phenol-based compounds and indole
Production suppression rate (%) of 1,3-Benzenediol (β-glucuronidase): 100%
Production suppression rate (%) of 1,4-Benzenediol (β-glucuronidase): 73%
Production suppression rate (%) of 2-Methoxy-1,3-benzenediol (β-glucuronidase): 73%
Production suppression rate (%) of 4-Vinyl-2-methoxyphenol (β-glucuronidase): 55%
Production suppression rate (%) of 4-Vinylphenol (β-glucuronidase): 57%
Production suppression rate (%) of Indole (β-glucuronidase): 57%
Production suppression rate (%) of Phenol (β-glucuronidase): 70%
Production suppression rate (%) of p-Cresol (β-glucuronidase): 63%
β-glucuronidase activity of putrefied urine supernatant (result in words, FIG. 4) [2]: suppressed the β-glucuronidase activity
